Laboratory results: patent US12018097
Like-named read-outs stand apart in the source and are kept apart here.

Details: the molecule shown is the open-chain precursor, thioether bond, resin, 4 steps

catch-resin-ArSO2O-CH2CO-dTrp-MeAla-Asp-Val-MeSer-Gly-Arg-MePhe-MeGly-Tyr-MePhe-Pro-Cys-Gly-NH2?
ring closure, conversion (42-membered ring): 50%

catch-resin-ArSO2O-CH2CO-dTrp-Asp-Pro-MeAla-Asp-Val-MeSer-Gly-Arg-MePhe-MeGly-Tyr-MePhe-Pro-Cys-Gly-NH2?
ring closure, conversion (48-membered ring): 74%

catch-resin-ArSO2O-CH2CO-dTrp-Tyr-Asp-MeSer-Gly-Asp-Pro-MeAla-Asp-Val-MeSer-Gly-Arg-MePhe-MeGly-Tyr-MePhe-Pro-Cys-Gly-NH2?
ring closure, conversion (60-membered ring): 57%

catch-resin-ArSO2O-CH2CO-dTrp-Cys-Asp-Val-MeSer-Gly-Arg-MePhe-MeGly-Tyr-MePhe-Pro-Cys-Gly-NH2?
ring closure, conversion (42-membered ring): 28%

catch-resin-ArSO2O-CH2CO-dTrp-Gly-Asp-Pro-MeAla-Asp-Val-MeSer-Gly-Arg-MePhe-MeGly-Tyr-MePhe-Pro-Cys-Gly-NH2?
ring closure, conversion (51-membered ring): 51%

catch-resin-ArSO2O-CH2CO-dTrp-MeAla-Asp-Val-MeSer-Gly-Arg-MePhe-MeGly-Tyr-Cys-Gly-NH2?
ring closure, conversion (36-membered ring): 72%

catch-resin-ArSO2O-CH2CO-dTrp-Pro-MeAla-Asp-Val-MeSer-Gly-Arg-MePhe-MeGly-Tyr-MePhe-Pro-Cys-Gly-NH2?
ring closure, conversion (45-membered ring): 33%

catch-resin-ArSO2O-CH2CO-dTrp-MeAla-Asp-Val-Cys-Gly-NH2?
ring closure, conversion (18-membered ring): 83%

catch-resin-ArSO2O-CH2CO-dTrp-Asp-MeSer-Gly-Asp-Pro-MeAla-Asp-Val-MeSer-Gly-Arg-MePhe-MeGly-Tyr-MePhe-Pro-Cys-Gly-NH2?
ring closure, conversion (57-membered ring): 50%

catch-resin-ArSO2O-CH2CO-dTrp-MeAla-Asp-Val-MeSer-Gly-Arg-Cys-Gly-NH2?
ring closure, conversion (27-membered ring): 98%

catch-resin-ArSO2O-CH2CO-dTrp-MeAla-Tyr-Asp-MeSer-Gly-Asp-Pro-MeAla-Asp-Val-MeSer-Gly-Arg-MePhe-MeGly-Tyr-MePhe-Pro-Cys-Gly-NH2?
ring closure, conversion (63-membered ring): 44%

catch-resin-ArSO2O-CH2CO-dTrp-MeSer-Gly-Asp-Pro-MeAla-Asp-Val-MeSer-Gly-Arg-MePhe-MeGly-Tyr-MePhe-Pro-Cys-Gly-NH2?
ring closure, conversion (54-membered ring): 29%

catch-resin-ArSO2O-CH2CO-dTrp-MeAla-Asp-Val-MeSer-Gly-Arg-MePhe-MeGly-Cys-Gly-NH2?
ring closure, conversion (33-membered ring): 64%

catch-resin-ArSO2O-CH2CO-dTrp-MeAla-Asp-Val-MeSer-Cys-Gly-NH2?
ring closure, conversion (21-membered ring): 66%
